Measured values as given in PubChem BioAssay (NCI).
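48-hour exposure; five concentrations; linearly interpolated endpoints. GI50: concentration for 50% inhibition of growth. Definition used: TGI = concentration required for complete inhibition of growth.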

Tests used:
Assay in all cases: NCI tumour cell line growth inhibition, 48 h
T-47D breast = system: T-47D breast
BT-549 breast = system: BT-549 breast
UACC-257 melanoma = system: UACC-257 melanoma
OVCAR-8 ovarian = system: OVCAR-8 ovarian
OVCAR-4 ovarian = system: OVCAR-4 ovarian
SNB-75 CNS = system: SNB-75 CNS
A549 NSCLC = system: A549 NSCLC
CCRF-CEM leukemia = system: CCRF-CEM leukemia
SF-268 CNS = system: SF-268 CNS
CAKI-1 renal = system: CAKI-1 renal
EKVX NSCLC = system: EKVX NSCLC
DU-145 prostate = system: DU-145 prostate
UACC-62 melanoma = system: UACC-62 melanoma
OVCAR-3 ovarian = system: OVCAR-3 ovarian
MOLT-4 leukemia = system: MOLT-4 leukemia
RPMI-8226 leukemia = system: RPMI-8226 leukemia
PC-3 prostate = system: PC-3 prostate
SNB-19 CNS = system: SNB-19 CNS
M14 melanoma = system: M14 melanoma
SF-539 CNS = system: SF-539 CNS
HOP-92 NSCLC = system: HOP-92 NSCLC
A498 renal = system: A498 renal
SK-MEL-5 melanoma = system: SK-MEL-5 melanoma
SR leukemia = system: SR leukemia
HCT-15 colon = system: HCT-15 colon
SW-620 colon = system: SW-620 colon
MDA-MB-468 breast = system: MDA-MB-468 breast
OVCAR-5 ovarian = system: OVCAR-5 ovarian
HOP-62 NSCLC = system: HOP-62 NSCLC

Structure (SMILES): Nc1n[nH]c2cccc(C#Cc3cccc(NC(=O)Nc4cc(C(F)(F)F)cc(C(F)(F)F)c4)c3)c12
- GI50 (T-47D breast): 2730 nM
- TGI (T-47D breast): 11 µM
- GI50 (BT-549 breast): 1970 nM
- TGI (BT-549 breast): 5.3 µM
- GI50 (UACC-257 melanoma): 2590 nM
- TGI (UACC-257 melanoma): 8.44 µM
- GI50 (OVCAR-8 ovarian): 2930 nM
- TGI (OVCAR-8 ovarian): 10 µM
- GI50 (OVCAR-4 ovarian): 2600 nM
- TGI (OVCAR-4 ovarian): 8.39 µM
- GI50 (SNB-75 CNS): 287 nM
- TGI (SNB-75 CNS): 10.6 µM
- GI50 (A549 NSCLC): 2590 nM
- TGI (A549 NSCLC): 11.3 µM
- GI50 (CCRF-CEM leukemia): 3.27 µM
- TGI (CCRF-CEM leukemia): 14.2 µM
- GI50 (SF-268 CNS): 3.2 µM
- TGI (SF-268 CNS): 14 µM
- GI50 (CAKI-1 renal): 2360 nM
- TGI (CAKI-1 renal): 11.5 µM
- GI50 (EKVX NSCLC): 2710 nM
- TGI (EKVX NSCLC): 8.02 µM
- GI50 (DU-145 prostate): 3.5 µM
- TGI (DU-145 prostate): 12.5 µM
- GI50 (UACC-62 melanoma): 2110 nM
- TGI (UACC-62 melanoma): 4.9 µM
- GI50 (OVCAR-3 ovarian): 2670 nM
- TGI (OVCAR-3 ovarian): 8.06 µM
- GI50 (MOLT-4 leukemia): 2770 nM
- TGI (MOLT-4 leukemia): 10.2 µM
- GI50 (RPMI-8226 leukemia): 2630 nM
- TGI (RPMI-8226 leukemia): 9.16 µM
- GI50 (PC-3 prostate): 2230 nM
- TGI (PC-3 prostate): 6.96 µM
- GI50 (SNB-19 CNS): 7.62 µM
- TGI (SNB-19 CNS): 21.2 µM
- GI50 (M14 melanoma): 2020 nM
- TGI (M14 melanoma): 4.55 µM
- GI50 (SF-539 CNS): 1520 nM
- TGI (SF-539 CNS): 4.28 µM
- GI50 (HOP-92 NSCLC): 1900 nM
- TGI (HOP-92 NSCLC): 5.12 µM
- GI50 (A498 renal): 3.84 µM
- TGI (A498 renal): 10.4 µM
- GI50 (SK-MEL-5 melanoma): 1880 nM
- TGI (SK-MEL-5 melanoma): 3.69 µM
- GI50 (SR leukemia): 2580 nM
- TGI (SR leukemia): 15.3 µM
- GI50 (HCT-15 colon): 2480 nM
- TGI (HCT-15 colon): 10.1 µM
- GI50 (SW-620 colon): 1960 nM
- TGI (SW-620 colon): 3.8 µM
- GI50 (MDA-MB-468 breast): 2220 nM
- TGI (MDA-MB-468 breast): 6 µM
- GI50 (OVCAR-5 ovarian): 2200 nM
- TGI (OVCAR-5 ovarian): 10.4 µM
- GI50 (HOP-62 NSCLC): 1930 nM
- TGI (HOP-62 NSCLC): 4.25 µM
